Patent publication US11149047B2, “Aryl imidazoles for treatment of cancer” (Aptose Biosciences Inc., priority 2017, dated 2021)

How the values were obtained:
[1] = test system: phosphorylated ATM, γH2AX, cleaved PARP in Raji cells; test: Western blot of phospho-ATM, γH2AX and cleaved PARP; type: cell-based, human; conditions: 0.5 μM
Experimental: The structure of COMPOUND I is similar to drugs that bind to quadruplex structures in DNA which results in strand breaks; this led to the investigation of whether COMPOUND I caused damage to DNA. The parental Raji cells were treated with 0.5 μM COMPOUND I for increasing periods of time and induction of DNA damage was assessed by accumulation of the phosphorylated forms of ATM and γH2AX measured by Western blot analysis. […] Raji cells have very small nuclei making it difficult to quantify the formation of γH2AX foci, so the human ovarian carcinoma cell line CAOV3 was used for this purpose. […] Evidence of DNA damage was further strengthened by the results of the neutral comet assay which mainly detects DNA double strand breaks (FIG. 2D).

[2] = test system: γH2AX foci in CAOV3 cells; test: Immunofluorescence staining of γH2AX foci; type: cell-based, human; conditions: CAOV3, time course, FIG. 2C
Experimental: Cells were harvested and washed with PBS twice, fixed in Z-fix solution (buffered zinc formalin fixatives, Anatech, Inc, Creek, Mich.) and permeabilized and blocked with 0.3% Triton X-100 in PBS containing 5% bovine serum albumin. The cells were then incubated with γ-H2AX antibody (1:250 dilution in 0.3% Triton X-100 in PBS containing 1% bovine serum albumin) overnight followed by three washes. Cells were incubated for 1 h with fluorescent-conjugated secondary antibodies (1:1000 dilution) followed by three washes. Slides were mounted with ProLong Gold antifade reagent with 4′,6-diamidino-2-phenylindole (DAPI) to stain cell nuclei (Molecular Probes). Fluorescence was viewed with Keyence Fluorescent Microscope using a 100× objective and quantitated with Image J software (the National Institutes of Health).
The structure of COMPOUND I is similar to drugs that bind to quadruplex structures in DNA which results in strand breaks; this led to the investigation of whether COMPOUND I caused damage to DNA. The parental Raji cells were treated with 0.5 μM COMPOUND I for increasing periods of time and induction of DNA damage was assessed by accumulation of the phosphorylated forms of ATM and γH2AX measured by Western blot analysis. […]

[3] = test system: BIK, BAD, MCL-1 in Raji/COMPOUND IR cells; test: Western blot of proteins involved in apoptosis; type: cell-based, human
Source text: In order to delineate which effects of COMPOUND I are most closely linked to sensitivity for this drug, a subline of the Raji Burkitt's lymphoma cell line that had acquired resistance (Raji/COMPOUND IR) as a result of repeated exposure to progressively higher concentrations of COMPOUND I over a period of 6 months was developed. Resistance evolved slowly and progressively without an abrupt change at any point during the selection process. […] This is in the same range as has been reported for freshly isolated AML blasts and CLL cells. Zhang et al., “Inhibition of c-Myc by ATPO-COMPOUND I as an Innovative Therapeutic Approach to Induce Cell Cycle Arrest and Apoptosis in Acute Myeloid Leukemia [abstract],” Blood 2016; 128:1716; Kurtz et al., “Broad Activity of COMPOUND I in AML and other Hematologic Malignancies Correlates with KFL4 Expression Level [abstract],” Blood 2015; 126:1358, both of which are hereby incorporated by reference. […] The level of resistance remained stable for at least 3 months during culture in drug-free media (FIG. 4A). Raji/COMPOUND IR cells grew slightly faster than the parental cells but the difference was not statistically significant.

[4] = test system: MV4-11 cells; test: Flow cytometry cell-cycle analysis; type: cell-based; conditions: 1 μmol/L, 24-hour exposure
Experimental: Cells were treated as described above. To determine apoptosis, cells were stained with FITC-Annexin V and propidium iodide (PI; BD Pharmingen, catalog #556570) and then analyzed on BD Accuri C6 flow cytometer. To measure DNA synthesis and phases of cell cycle, treated cells were stained with 5-ethynyl-2′-deoxyuridine (Edu) Alexa Fluor 488 (Thermo Fisher Scientific, catalog #C10425) and PI (PI/RNase A staining solution, BD Biosciences, catalog #550825). The dead cells were excluded from analysis by using Live/Dead Fixable Far Red Dead Cell Stain Kit (Thermo Fisher Scientific, catalog #L34973). Staining was performed as per the manufacturers' instructions.
Previous studies reported upregulation of KLF4 and CDKN1A expression as a potential mechanism of APT0-COMPOUND I activity in tumors. […] The upregulation of CDKN1A mRNA increased with duration of exposure in all AML cell lines tested (FIGS. 15D and 15E). At later time points, CDKN1A expression began to decrease, likely due to increasing cell death. Induction of CDKN1A expression is typically associated with a subsequent G0-G1, cell-cycle arrest, which was observed following COMPOUND I treatment of solid tumor lines.

[5] = test system: H3K27ac at the MYC promoter in MV4-11 cells; test: ChIP-qPCR for H3K27ac; type: cell-based; conditions: 500 nmol/L
Experimental: MV4-11 cells were treated with vehicle DMSO or 500 nmol/L COMPOUND I for 2, 6, or 24 hours and then crosslinked with 1% formaldehyde. Chromatin was extracted by sonication and then incubated with H3K27ac (Active Motif #39133) antibody overnight. The antibody:DNA complexes were isolated with Protein G beads (Invitrogen Dynabeads catalog #10004D) and analyzed by qPCR with primers specific to the MYC promoter (Table 7). H3K27ac enrichment was calculated as fold over input DNA control.
Regulation of MYC expression is a complex process that involves MYC transcription, mRNA stability, and protein turnover. ChIP-qPCR analysis for H3K27ac, a well-established marker of active chromatin, was performed to assess transcriptional competency of the MYC gene promoter after treatment with COMPOUND I (FIG. 19D). […] To determine whether COMPOUND I affected MYC mRNA stability, an RNA decay assay was performed on EOL-1 cells.

[6] = test system: ds-DNA; test: Modified FRET assay with ds-DNA hairpin oligo; type: binding
Experimental: FRET assay and data analysis was performed as described previously and modified by using dual labeled (5′ FAM-3′ BHQ1) single-stranded oligos. Melting temperature of each oligo was assessed in the presence of vehicle DMSO or escalating concentrations of COMPOUND I, Fe(COMPOUND I)3, CX-5461, or TMPyP4 using a Roche LightCycler 96 [at 37° C. for 300 seconds followed by temperature increased in […] intervals up to 91° C. (25 steps) with 300-second total incubation time at each temperature]. Drug and oligo reaction mixes were analyzed immediately or incubated for 6 hours at room temperature and then analyzed. […] COMPOUND I data are presented for 6-hour time point.
To assess selectivity for G4 structures over nonspecific interactions with ds-DNA, the FRET assay was repeated with a self-complimentary oligo that forms a ds-DNA hairpin in solution. […] The lack of effect on 45 s rRNA may reflect differences in availability of COMPOUND I and/or Fe(COMPOUND I)3 into the rRNA-rich nucleolar region of the nucleus. Nevertheless, COMPOUND I clearly can stabilize G4 structures, which provides an explanation for the inhibition of the expression of MYC and other genes. […]

## Cc1[nH]c2ccc(F)cc2c1-c1nc2c3cccnc3c3ncccc3c2[nH]1 [COMPOUND I, 2-(5-fluoro-2-methyl-1H-indol-3-yl)-1H-imidazo[4,5-f][1,10]phenanthroline]
[1]; time course
  cleavage of PARP: detected starting at 8 h
[1]; up to 24 h
  phosphorylated ATM and γH2AX accumulation: clear increase in phosphorylated ATM and γH2AX starting at 6 h
[2]
  number of γH2AX foci: increase in the number of foci was detectable at 1 h
[3]; 0.5 μM, 24 h
  changes in BIK, BAD, MCL-1: None of these changes were detected
[3]; concentration that induced apoptosis in Raji sensitive cells
  induction of apoptosis: failed to trigger apoptosis
[4]
  G0-G1 cell-cycle arrest: all live cells had arrested in G0-G1
[5]
  earliest time a decrease in H3K27ac at the MYC promoter was observed: 2 h
[6]
  interaction with dsDNA: did not interact with dsDNA
